Data taken from patent US20250101436A1, “APTAMERS AND SMALL MOLECULE LIGANDS” (MeiraGTx UK II Limited, priority 2021, published 2025).

These substances were tested on luciferase gene expression in HEK 293 cells in response to Comp. 004 (assay: Screen of riboswitch constructs with 12C6-1 variant aptamers (libraries N1-N5) against Comp. 004, luciferase in HEK 293 cells). Conditions: library N1 (J2-4), HEK 293, 25 M [sic] Comp. 004.
Format: cell-based, human
Procedure, shortened: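 Riboswitch constructs carrying 12C6-1 aptamer variants, randomized in J2-4, J2-3/J3-3a/J3a-2/P3, L3a, J4-5/J5-4/P4 or L5 regions (libraries N1-N5), cloned into an intron-exon-intron cassette driving luciferase. Screened in HEK 293 cells with 25 µM Comp. 004; read-out is fold induction of gene expression versus parent Luci-12C6-1.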

| Substance | Fold (induction of luciferase gene expression) [fold] |
| --- | --- |
| N1_2F4 (CTGGGGAGTCCTTCATGCGGGGC; chemistry not given here) | 4.74 |
| N1_2F1 (CTGGGGAGTCCTTCATGCGGGGC; chemistry not given here) | 8.34 |
| N1_2G7 (CTGGGGAGTCCTTCATGCGGGGC; chemistry not given here) | 2.06 |
| N1_2E8 (CTGGGGAGTCCTTCATGCGGGGC; chemistry not given here) | 5.81 |
| N1_2D10 (CTGGGGAGTCCTTCATGCGGGGC; chemistry not given here) | 15.53 |
| N1_2D2 (CTGGGGAGTCCTTCATGCGGGGC; chemistry not given here) | 102.23 |
| N1_2G6 (CTGGGGAGTCCTTCATGCGGGGC; chemistry not given here) | 11.00 |
| N1_2F3 (CTGGGGAGTCCTTCATGCGGGGC; chemistry not given here) | 15.56 |
| N1_2H1 (CTGGGGAGTCCTTCATGCGGGGC; chemistry not given here) | 9.41 |
| N1_2E2 (CTGGGGAGTCCTTCATGCGGGGC; chemistry not given here) | 7.86 |
| N1_2G8 (CTGGGGAGTCCTTCATGCGGGGC; chemistry not given here) | 8.46 |

Same assay, conditions: library N2 variant aptamers (J2-3, P3-J3-3a, J3a-2 randomized) of 12C6-1 in riboswitch constructs; in response to Comp. 004; HEK 293 cells

| Substance | Fold (induction of luciferase gene expression) [fold] |
| --- | --- |
| N2_2B3 (CTGGGGAGTCCTTCATGC; chemistry not given here) | 1.2 |
| N2_2E5 (DNA CTGGGGAGTCCTTCATGC; chemistry not given here) | 1.2 |
| N2_2A1 (CTGGGGAGTCCTTCATGC; chemistry not given here) | 1.0 |
| N2_2H9 (CTGGGGAGTCCTTCATGC; chemistry not given here) | 0.9 |
| N2_2D3 (DNA CTGGGGAGTCCTTCATGC; chemistry not given here) | 0.9 |
| N2_2D11 (DNA CTGGGGAGTCCTTCATGC; chemistry not given here) | 1.3 |
| N2_2B9 (CTGGGGAGTCCTTCATGC; chemistry not given here) | 1.1 |
| N2_2A10 (CTGGGGAGTCCTTCATGC; chemistry not given here) | 1.1 |
| N2_2C9 (CTGGGGAGTCCTTCATGC; chemistry not given here) | 1.2 |
| N2_2A12 (CTGGGGAGTCCTTCATGC; chemistry not given here) | 1.1 |
| N2_2F8 (DNA CTGGGGAGTCCTTCATGC; chemistry not given here) | 1.0 |
| N2_2F6 (DNA CTGGGGAGTCCTTCATGC; chemistry not given here) | 1.0 |
| N2_2H2 (CTGGGGAGTCCTTCATGC; chemistry not given here) | 0.8 |
| N2_2D8 (DNA CTGGGGAGTCCTTCATGC; chemistry not given here) | 1.1 |
| N2_2H1 (CTGGGGAGTCCTTCATGC; chemistry not given here) | 1.1 |
| N2_2A9 (CTGGGGAGTCCTTCATGC; chemistry not given here) | 1.1 |

Same assay, conditions: library N5 variant aptamers (L5, X16-X21 randomized) of 12C6-1 in riboswitch constructs; in response to Comp. 004 treatment; HEK 293 cells

| Substance | Fold (induction of luciferase gene expression) [fold] |
| --- | --- |
| N5_1A6 (CTGGGGAGTCCT; chemistry not given here) | 638.8 |
| N5_13G5 (CTGGGGAGTCCT; chemistry not given here) | 1198.5 |
| N5_5D7 (CTGGGGAGTCCT; chemistry not given here) | 769.4 |
| N5_7H1 (DNA CTGGGGAGTCCT; chemistry not given here) | 158.5 |
| N5_7G3 (DNA CTGGGGAGTCCT; chemistry not given here) | 799.3 |
| N5_7F11 (DNA CTGGGGAGTCCT; chemistry not given here) | 339.7 |
| N5_8D1 (DNA CTGGGGAGTCCT; chemistry not given here) | 1139.6 |
| N5_7E5 (DNA CTGGGGAGTCCT; chemistry not given here) | 867.4 |
| N5_8F11 (DNA CTGGGGAGTCCT; chemistry not given here) | 1282.8 |
| N5_1D8 (CTGGGGAGTCCT; chemistry not given here) | 383.5 |
| N5_1C7 (CTGGGGAGTCCT; chemistry not given here) | 485.7 |
| N5_7E2 (DNA CTGGGGAGTCCT; chemistry not given here) | 1234.5 |
| N5_1A5 (CTGGGGAGTCCT; chemistry not given here) | 291.5 |
| N5_7D3 (DNA CTGGGGAGTCCT; chemistry not given here) | 1075.7 |
| N5_6A6 (CTGGGGAGTCCT; chemistry not given here) | 1024.4 |
| N5_6G10 (CTGGGGAGTCCT; chemistry not given here) | 1262.0 |
| N5_7B1 (CTGGGGAGTCCT; chemistry not given here) | 2062.3 |
| N5_7D2 (DNA CTGGGGAGTCCT; chemistry not given here) | 1114.3 |
| N5_1A11 (CTGGGGAGTCCT; chemistry not given here) | 793.5 |
| N5_13D5 (CTGGGGAGTCCT; chemistry not given here) | 749.4 |
| N5_13D1 (CTGGGGAGTCCT; chemistry not given here) | 722.9 |
| N5_7B10 (CTGGGGAGTCCT; chemistry not given here) | 1361.5 |
| N5_6A3 (CTGGGGAGTCCT; chemistry not given here) | 696.0 |
| N5_9F1 (DNA CTGGGGAGTCCT; chemistry not given here) | 875.6 |
| N5_1H1 (CTGGGGAGTCCT; chemistry not given here) | 84.1 |

| Substance | Fold (induction of luciferase gene expression) [fold] |
| --- | --- |
| N5_6G6 (CTGGGGAGTCCT; chemistry not given here) | 1004.4 |
| N5_7H3 (DNA CTGGGGAGTCCT; chemistry not given here) | 360.5 |
| N5_7B8 (CTGGGGAGTCCT; chemistry not given here) | 693.7 |
| N5_7B7 (CTGGGGAGTCCT; chemistry not given here) | 1046.3 |
| N5_7C8 (DNA CTGGGGAGTCCT; chemistry not given here) | 1313.8 |
| N5_1E10 (CTGGGGAGTCCT; chemistry not given here) | 1026.1 |
| N5_1B6 (CTGGGGAGTCCT; chemistry not given here) | 1381.8 |
| N5_7D6 (DNA CTGGGGAGTCCT; chemistry not given here) | 1210.5 |
| N5_3A3 (CTGGGGAGTCCT; chemistry not given here) | 1066.3 |
| N5_1H9 (CTGGGGAGTCCT; chemistry not given here) | 714.2 |
| N5_9B8 (DNA CTGGGGAGTCCT; chemistry not given here) | 792.8 |
| N5_7H10 (DNA CTGGGGAGTCCT; chemistry not given here) | 713.9 |
| N5_14B10 (CTGGGGAGTCCT; chemistry not given here) | 1133.0 |
| N5_8F1 (DNA CTGGGGAGTCCT; chemistry not given here) | 951.8 |
| N5_3D8 (CTGGGGAGTCCT; chemistry not given here) | 824.4 |
| N5_1A8 (CTGGGGAGTCCT; chemistry not given here) | 589.4 |
| N5_1F3 (CTGGGGAGTCCT; chemistry not given here) | 212.8 |
| N5_5D9 (CTGGGGAGTCCT; chemistry not given here) | 712.5 |
| N5_1F2 (CTGGGGAGTCCT; chemistry not given here) | 415.1 |
| N5_1H2 (CTGGGGAGTCCT; chemistry not given here) | 386.6 |
| N5_7G1 (DNA CTGGGGAGTCCT; chemistry not given here) | 935.4 |
| N5_7D4 (DNA CTGGGGAGTCCT; chemistry not given here) | 1144.9 |
| N5_1H7 (CTGGGGAGTCCT; chemistry not given here) | 1032.1 |
| N5_1A10 (CTGGGGAGTCCT; chemistry not given here) | 674.4 |
